Measured values published in article PMC8587000, “Pyridinone Derivatives as Interesting Formyl Peptide Receptor (FPR) Agonists for the Treatment of Rheumatoid Arthritis” (Molecules, 2021).
Like-named read-outs stand apart in the source and are kept apart here. Each block holds one compound with its values, some of them ahead of it.

Legend:
[1] = tested on: CFA-treated rats; assay: Paw pressure test in CFA-induced inflammatory arthritis; type: in vivo, rat; conditions: 10 mg/kg p.o. daily for 7 days, day 8 (24 h after last dose), CFA + vehicle 35.2 ± 1.6 g, sham + vehicle 66.4 ± 2.3 g, mean ± SEM, five rats
Description: (§1) Male Sprague Dawley rats (Envigo, Varese, Italy) weighing approximately 200–250 g at the beginning of the experimental procedure were used. Animals were housed in Ce.S.A.L. (Centro Stabulazione Animali da Laboratorio, University of Florence) and used at least one week after their arrival. Four rats were housed per cage (size 26 × 41 cm^2); animals were fed a standard laboratory diet, given tap water ad libitum, and kept at 23 ± 1 °C with a 12 h light/dark cycle, light at 7 a.m. All animal manipulations were carried out according to the Directive 2010/63/EU of the European parliament and of the European Union council (22 September 2010) on the protection of animals used for scientific purposes. The ethical policy of the University of Florence complies with the Guide for the Care and Use of Laboratory Animals of the US National Institutes of Health (NIH Publication No. 85–23, revised 1996; University of Florence assurance number: A5278-01). Formal approval to conduct the experiments described was obtained from the Italian Ministry of Health (No. 517/2017, 06/04/2017) and from the Animal Subjects Review Board of the University of Florence. Experiments involving animals have been reported according to ARRIVE guidelines. […]
Nociceptive threshold was determined with an analgesimeter (Ugo Basile, Varese, Italy). […]

[2] = tested on: CFA-treated rats; assay: Incapacitance test in CFA-induced inflammatory arthritis; type: in vivo, rat; conditions: 10 mg/kg p.o. daily for 7 days, day 8, CFA + vehicle 57.2 ± 4.0 g, sham + vehicle 3.6 ± 2.5 g, mean ± SEM, five rats
Description: as §1, with “A5278-01).” for “A5278-01). Formal approval to conduct the experiments described was obtained from the Italian Ministry of Health (No. 517/2017, 06/04/2017) and from the Animal Subjects Review Board of the University of Florence. Experiments involving animals have been reported according to ARRIVE guidelines.”
Weight bearing changes were measured using an Incapacitance Apparatus (Linton Instrumentation, UK), detecting changes in postural equilibrium after a hind limb injury. […] Data are expressed as the difference between the weight applied to the limb contralateral to the injury and the weight applied to the ipsilateral one (Δ weight).

[3] = tested on: human neutrophils (hPMN); parameters: method as in PMID 32388428; conditions: Ca2+ mobilization; cited from earlier work
[4] = tested on: rat model of rheumatoid arthritis; parameters: method as in PMID 32388428; conditions: dose of 30 mg/kg/day; cited from earlier work
[5] = biological target: T1, FPR2 (Homo sapiens, UniProt P25090); assay: Ca2+ mobilization in FPR2-transfected HL60 cells; type: cell-based
T1 construct: expressed in transfected cells; host or cells: HL60 (human promyelocytic leukemia), stably transfected; gift from Dr. Marie-Josephe Rabiet
T1 sequence (P25090 1-351): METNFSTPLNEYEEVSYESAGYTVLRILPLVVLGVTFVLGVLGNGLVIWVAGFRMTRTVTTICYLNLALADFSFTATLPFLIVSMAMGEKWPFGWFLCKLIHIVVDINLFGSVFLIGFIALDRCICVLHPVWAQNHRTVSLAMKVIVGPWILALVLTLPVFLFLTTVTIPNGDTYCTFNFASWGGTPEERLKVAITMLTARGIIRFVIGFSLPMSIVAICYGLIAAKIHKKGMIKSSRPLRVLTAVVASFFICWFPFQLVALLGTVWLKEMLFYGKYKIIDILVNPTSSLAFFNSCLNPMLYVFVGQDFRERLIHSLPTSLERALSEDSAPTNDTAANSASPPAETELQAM
Description: (§2) Human promyelocytic leukemia HL60 cells stably transfected with FPR1 (FPR1-HL60 cells) or FPR2 (FPR2-HL60 cells) (kind gift from Dr. Marie-Josephe Rabiet, Université Joseph Fourier, Grenoble, France) were cultured in RPMI 1640 medium supplemented with 10% heat-inactivated fetal calf serum, 10 mM HEPES, 100 μg/mL streptomycin, 100 U/mL penicillin, and G418 (1 mg/mL). G418 was removed in the last round of culture before assays were performed.

[6] = biological target: T2, FPR1 (Homo sapiens, UniProt P21462); parameters: method as in PMID 32388428; conditions: Ca2+ mobilization; read-out: FPR1-HL60 EC50; cited from earlier work
T2 construct: expressed in transfected cells; host or cells: HL60 (human promyelocytic leukemia), stably transfected; gift from Dr. Marie-Josephe Rabiet
T2 sequence (P21462 1-350): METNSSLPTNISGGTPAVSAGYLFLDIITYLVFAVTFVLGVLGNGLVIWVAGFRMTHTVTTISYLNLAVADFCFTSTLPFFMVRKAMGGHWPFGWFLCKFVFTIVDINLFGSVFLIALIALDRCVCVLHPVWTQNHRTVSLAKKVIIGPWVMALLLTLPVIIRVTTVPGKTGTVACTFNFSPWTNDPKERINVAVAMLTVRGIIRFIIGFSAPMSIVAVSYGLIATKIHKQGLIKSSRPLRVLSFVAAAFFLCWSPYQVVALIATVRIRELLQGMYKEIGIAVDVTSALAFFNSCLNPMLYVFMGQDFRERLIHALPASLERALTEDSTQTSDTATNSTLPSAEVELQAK

[7] = biological target: T1, FPR2; parameters: method as in PMID 32388428; conditions: Ca2+ mobilization; read-out: FPR2-HL60 EC50; cited from earlier work
[8] = tested on: model of antigen-induced arthritis; parameters: method as in PMID 33493655, PMID 30419493; conditions: increasing neutrophil apoptosis and efferocytosis; cited from earlier work
[9] = biological target: T2, FPR1; assay: Ca2+ mobilization in FPR1-transfected HL60 cells; type: cell-based
Description: as §2

[10] = tested on: human neutrophils (hPMN); assay: Ca2+ mobilization in human neutrophils (hPMN); type: cell-based; conditions: Neutrophil
Excerpt: Blood was collected from healthy donors in accordance with a protocol approved by the Institutional Review Board at Montana State University. Neutrophils were purified from the blood using dextran sedimentation, followed by Histopaque 1077 gradient separation and hypotonic lysis of red blood cells. Isolated neutrophils were washed twice and resuspended in HBSS^-. Neutrophil preparations were routinely >95% pure, as determined by light microscopy, and >98% viable, as determined by trypan blue exclusion.
Changes in intracellular Ca^2+ were measured with a FlexStation II scanning fluorometer (Molecular Devices, Sunnyvale, CA, USA). The cells, suspended in Hank’s balanced salt solution without Ca^2+ and Mg^2+ but with 10 mM HEPES (HBSS^−), were loaded with 1.25 μg/mL Fluo-4 AM dye and incubated for 30 min in the dark at 37 °C. After dye loading, the cells were washed with HBSS^- containing 10 mM HEPES, resuspended in HBSS^+ containing Ca^2+, Mg^2+, and 10 mM HEPES (HBSS^+), and aliquoted into the wells of flat-bottom, half-area-well black microtiter plates (2 × 10^5 cells/well). For the evaluation of direct agonist activity, compounds of interest were added from a source plate containing dilutions of test compounds in HBSS^+, and changes in fluorescence were monitored (λex = 485 nm, λem = 538 nm) every 5 s for 240 s at room temperature after the automated addition of compounds. Maximum change in fluorescence during the first 3 min, expressed in arbitrary units over baseline, was used to determine a response. […] Curve fitting (5–6 points) and calculation of median effective inhibitory concentrations (IC50) were performed by nonlinear regression analysis of the dose–response curves generated using Prism 9 (GraphPad Software, Inc., San Diego, CA, USA).

[11] = tested on: animal models (collagen-induced and antigen-induced arthritis) of RA; parameters: method as in PMID 16697190, PMID 29879657; conditions: dose of 30 mg/kg (i.p.); cited from earlier work

SMILES: COc1cccc(-c2cc(C#N)c(=O)n(CC(=O)Nc3ccc(Br)cc3)c2C)c1 [AMC3]
- pain threshold (paw pressure test) [1]: 52.4 ± 2.8 g
- postural unbalance, Δ Weight (incapacitance test) [2]: 34.6 ± 3.8 g
- EC50 [3]: 390 ± 170 nM
- effect on pain hypersensitivity [4]: completely control pain hypersensitivity

- selectivity index (SI) FPR1/FPR2 ([5]; ratio of EC50 FPR1-HL60 / FPR2-HL60): 8
SMILES: CCOC(=O)c1cc(C#N)c(=O)n(CC(=O)Nc2ccc(Br)cc2)c1C [AMC4, reference compound]
- EC50 [6]: 3000 ± 400 nM
- EC50 [7]: 380 ± 90 nM
- EC50 [3]: 830 ± 240 nM

SMILES: CCC[C@@H](O)c1c(/C=C/[C@@H](O)[C@@H](O)CCCC(=O)OC)nc(C)n1C [AT-01-KG]
- anti-inflammatory activity [8]: anti-inflammatory activity

- EC50 [9]: 230 ± 60 nM
- Emax ([9]; HL-60, read-out: FPR1-HL60 Efficacy (converted)): 115%
- EC50 [5]: 230 ± 20 nM
- Emax ([5]; HL-60, read-out: FPR2-HL60 Efficacy (converted)): 150%
- EC50 [10]: 3700 ± 700 nM
- melting point: 282 to 284 °C (dec.)
SMILES: Cc1c(-c2cccc(O)c2)cc(C#N)c(=O)n1CC(=O)Nc1ccc(Br)cc1 [Compound 14a, N-(4-Bromophenyl)-2-[3-cyano-5-(3-hydroxyphenyl)-6-methyl-2-oxopyridin-1(2H)-yl] acetamide]
- Emax ([10]; read-out: hPMN Efficacy (converted)): 130%

SMILES: CC(C)c1c(NC(=O)Nc2ccc(Cl)cc2)c(=O)n(-c2ccccc2)n1C [Cpd43]
- effect on arthritis (tissue inflammation, cartilage damage, synovitis) [11]: significantly reducing the tissue inflammation, cartilage damage, and synovitis
